From patent publication US20250134897A1, “PREPARATION OF IS[…] KETO[…] METHODS OF HYPERPO[…] SIGNAL AMP[…] […] (SABRE)” (The United States of America,as represented by the …, priority 2022, published 2025)

What was measured:
[1] = SABRE-SHEATH 13C hyperpolarization, single-scan 13C NMR; assay type: physicochemical; conditions: 10 mM substrate, 45 mM DMSO, 7.8 mM Ir-IMes catalyst in methanol-d4; 55 s p-H2 bubbling at BT=−0.2 μT; ~50% p-H2; acquired after transfer to 1 T
Source text: Ultra-high-purity hydrogen gas (Airgas) was fed into a Para-Hydrogen (pH2) flow cryostat (Xeus technology LTD) and enriched to about 50% parahydrogen in the presence of a spin-exchange catalyst (Fe2O3) at liquid nitrogen temperature (77 K). The pH2 flow was directed via PTFE tubing to a mass flow controller (MFC, Sierra Instruments SmartTrak 100 series) set at 90 ssc/m and directed to a conventional 5 mm NMR tube (Norell) to allow bubbling through the sample. The entire pH2 line was pressurized to 96 psi.
At least once a day, the shield was degaussed using internal coils driven by a Variac. The solenoid has 41 mm diameter (40 mm core, 20 cm long windings with 220 turns AWG20 (0.9 mm) Cu wire and with 220Ω resistor in series. The solenoid coil was driven by commercial 1.5V batteries with a variable-resistance decade box in series to provide finer control of the internal magnetic field inside the shield. Typical values of the field within the shield were between […], with SABRE SHEATH experiments typically between 0.5 μT and 0.8 μT in the sample region. The values were monitored between SABRE experiments using a Lakeshore Cryotronics Gaussmeter (Model No. 475 DSP with HMMA-2512-VR Hall Probe.
NMR experiments were performed using a 1 T Magritek Spinsolve benchtop NMR spectrometer. […]

[2] = 13C-1 spin-lattice relaxation time (T1) at 3 T MRI system; assay type: physicochemical; conditions: 3 T MRsolution MRI system, solutions of DPBS with EDTA

O=C(CC[12C](=O)[O-])[13C](=O)[O-].[Na+].[Na+] [sodium [1-^13C] Ketoglutarate, sodium 2-Oxopentanedioate-5-^12C-1-^13C]
polarization P(13C) [1]: ~0.24%

O=C(O)CCC(=O)C(=O)O [2-Oxopentanedioic-5-^12C-1-^13C acid]
T1 after flip angle correction (spin-lattice relaxation time) [2]: 63.0 ± 0.835 s | apparent T1 (spin-lattice relaxation time) ([2]; without flip angle correction): 32.1 ± 0.824 s
